Laboratory results from patent US20250326785A1, “SODIUM SALT AND ETHANOLAMINE SALT OF 23-HYDROXYTORMENTIC ACID” (HUYABIO International, LLC, priority 2024, published 2025).
Entries after “also recorded” stand apart in the source; their conditions may differ.

Tests used:
[1] = Varying temperature (VT)-XRPD; assay type: physicochemical; settings: heating 25 to 250° C. (ethanolamine salt to 300° C.)
Protocol: Varying temperature (VT)-XRPD was carried out between 25-250° C.
VT-XRPD of HBI-3808 sodium salt of Pattern 5 was carried out between 25-250° C. (FIG. 5M). […] At 150° C., the diffractogram changed and was labelled as Pattern 7, indicating formation of HBI-3808 sodium salt of Pattern 7 (see Example 7). Diffractogram of Pattern 7, was observed between 150-250° C. Upon cooling to 25° C., Diffractogram of Pattern 5 was observed again, indicating reformation of HBI-3808 sodium salt of Pattern 5. Pattern 7 has some similarities with Pattern 6 (See Example 6). Both Patterns 6 and 7 may represent anhydrous forms of the HBI-3808 sodium salt. Starting concentration of the of HBI-3808 sodium salt of Pattern 5.
VT-XRPD was carried out according to the temperature program of Table 17B. […] At 210° C., the XRPD diffractogram was consistent with poorly crystalline BBI-3808 free acid of Pattern 1. Free acid (HBI-3808) of Pattern 1 was observed between 210-240° C.

[2] = Single-dose IV and oral pharmacokinetic study in rabbits; assay type: in vivo, New Zealand White Rabbits; settings: rabbit
Source text: Eight groups (n=3) of rabbits received single doses of HBI-3802 or the sodium salt (form 5) HBI-3808 either by intravenous dosing or by oral dosing. HBI-3802 was formulated in 20% PG +80% (20% Captisol in pH 7.4 PBS buffer), and HBI-3808 was formulated in 5% NMP+15% EtOH+10% Tween 80+70% (20% Captisol in pH 7.4 PBS buffer). In addition, normal or enteric coated capsules were used to orally deliver the sodium salt (form 5) of HBI-3808. To allow determination of oral absolute bioavailability, both HBI-3802 and HBI-3808 were delivered IV at a dose of 0.3 mg/kg and blood samples obtained at 0, 0.25, 0.5, 0.75, 1,2,4,8,12,24,48, and 72 hours after dosing for derivation of plasma used to determine plasma concentrations by LC-MS. The HBI-3802 0.3 mg/kg plasma concentrations were compared to plasma concentrations obtained at the same time points from rabbits receiving single oral doses of […] at 1 or 5 mg/kg. The HBI-3808 0.3 mg/kg plasma concentrations were compared to plasma concentrations from groups of rabbits receiving oral gavage of 1 mg/kg HBI-3808 solution or 5 mg/kg HBI-3808 solution and from rabbits receiving 5 mg/kg of the sodium salt (form 5) of HBI-3808 in normal capsules or in enteric coated capsules.

[3] = system: human embryonic stem cells (hESCs); test: Induction of differentiation of hESCs to cardiomyocytes; assay type: cell-based
Protocol: In order to test the effect of HBI-3808 on human embryonic stem cells (hESCs) on stimulating differentiation to cardiomyocytes (CMs), hESCs were incubated in the presence of media (see legend, FIG. 31) or 100 ng/ml HBI-3808.

VEGF = VEGF enrichment and angiogenesis induction by HBI-3808 conditioned media/supernatant; assay type: cell-based
[4] = system: Adult rats (Sprague Dawley) with MI by LAD ligation; test: Rat myocardial infarction model: pressure-volume catheter measurement; assay type: in vivo
Source text: Animal Model and Myocardial Infarction: Adult rats (Sprague Dawley (SD), body weight, -250 g) were used to generate a model with MI by LAD ligation of the heart as described in the previous study (Chongyu Zhang, Meng-Hsuan Hsieh, Song-Yi Wu, Shu-Hong Li, Jun Wu, Shi-Ming Liu, Hao-Ji Wei, Richard D. Weisel, Hsing-Wen Sung, Ren-Ke Li, “A self-doping conductive polymer hydrogel that can restore electrical impulse propagation at myocardial infarct to prevent cardiac arrhythmia and preserve ventricular function,” Biomaterials, Volume 231, 2020, 119672, ISSN 0142-9612). In brief, each rat was pre-medicated with 5% isoflurane in a chamber.
The selected rats having similar FS were randomly divided into 6 groups: (1) Negative control group (treated with 40% SBCD); (2) Positive control group (with HBI-3802, 2 mg/kg /day); (3) Dose 1 (HBI-3808 2 mg/kg/day); (4) Dose 2 (HBI-3808 0.64 mg/kg day); (5) Dose 3 (HBI-3808 0.2 mg/kg/day); and (6) Sham control (No myocardial infarction and treated with 40% SBCD).
Oral Treatment: Six days after permanent LAD ligation, the selected rats received the first daily treatment. HBI-3808 (at 1 of the 3 doses) or 3802 at 2 mg/kg/day (1 ml/rat/day) delivered by gastric gavage daily for 14 days (2). 40% SB-CD alone (1 ml/rat/day) was similarly administered to rats in the control and sham groups.
Pressure-Volume Measurement: End-point functional and morphological assessments were performed at 21 days after first treatment (27 days post myocardial infarction). Each rat was anesthetized as described above (Myocardial Infarction), and ventilated. The sternotomy was performed, and a calibrated Millar conductance pressure-volume catheter (Millar Instruments, USA) was inserted into the LV cavity through the apex. Pressure and volume data were collected with the Millar software. Parallel conductance was evaluated after the injection of hypertonic saline solution into the right jugular vein, with the volume measurements corrected for the parallel conductance. To analyze the LV pressure and volume relationship, pressure and volume data were acquired, and real-time pressure-volume loops were constructed. Stroke work (SW) and dP/dt max (indices of systolic function) and dP/dt min and Tau_w (index of diastolic function) as well as LV volumes were compared between the groups.

[5] = PO 5 mg/kg in enteric coated capsules
[6] = 2 mg/kg/day, vs 2 mg/kg HBI-3802, 0.64 and 0.2 mg/kg HBI-3808 and control, p<0.05 and 0.01

SMILES | temperature range in which diffractograms consistent with the input salt were observed [1] | bioavailability ([2]; PO 1 mg/kg in 5% NMP+15% EtOH+10% tween 80+70% (20% Captisol in pH 7.4 PBS buffer)) | bioavailability ([2]; PO 5 mg/kg in 5% NMP+15% EtOH+10% tween 80+70% (20% Captisol in pH 7.4 PBS buffer)) | absorption onset delayed until [2, 5] | bioavailability [2, 5] | bioavailability ([2]; PO 5 mg/kg in normal capsules) | dose dependence of Cmax and AUC ([2]; PO 1 and 5 mg/kg solution) | differentiation of hESCs to cardiomyocytes (CMs) ([3]; 100 ng/ml HBI-3808, day 13) | modulation of cardiac-associated genes ([3]; 100 ng/ml, days 1, 3, 6, 9, 13) | VEGF in media harvested from treated CMs (VEGF) | angiogenesis in supernatant of CM cell suspensions (VEGF) | cardiac diastolic function ([4]; 0.2 mg/kg/day, vs control at 21 days after treatment, p<0.01) | cardiac systolic function ([4]; 0.2 mg/kg/day, vs control at 21 days after treatment, p<0.05) | left ventricular end systolic volumes (ESV) ([4]; 0.2 mg/kg/day, vs control, p<0.02) | Left ventricular end diastolic volumes (EDV) ([4]; 0.64 mg/kg/day, vs 0.2 mg/kg group, p<0.01) | stroke work (SW) and dP/dt max (indices of systolic function) ([4]; 2 mg/kg/day, 21 days after treatment, vs 2 mg/kg HBI-3802, 0.64 and 0.2 mg/kg HBI-3808 and control, p<0.01) | end diastolic volumes compared with non-infarcted sham animals ([4]; 2 mg/kg/day, Day 21) | dP/dt min and Tau_w (index of diastolic function) [4, 6] | left ventricular end systolic volumes (ESV) [4, 6] | Left ventricular end diastolic volumes (EDV) ([4]; 2 mg/kg/day, vs 0.64 and 0.2 mg/kg HBI-3808 and control, p<0.01)
CC1CCC2(C(=O)[O-])CCC3(C)C(=CCC4C5(C)CC(O)C(O)C(C)(CO)C5CCC43C)C2C1(C)O.[Na+] (centres unmarked) [HBI-3808 sodium salt of Pattern 5, sodium salt of 23-hydroxytormentic acid] | 25-115 °C | 17.9% | 27.7% | 8 h | 10.9% | 10.7% | dose proportional increases with low variability | – | – | – | – | – | – | – | – | – | – | – | – | –
C[C@@H]1CC[C@]2(C(=O)O)CC[C@]3(C)C(=CCC4[C@@]5(C)C[C@@H](O)[C@H](O)[C@@](C)(CO)C5CC[C@]43C)C2[C@]1(C)O (some centres unmarked) [HBI-3808, 23-hydroxytormentic acid] | – | – | – | – | – | – | – | successfully stimulated hESCs to differentiate into viable, beating CMs by day 13 | produced detectable modulation of cardiac-associated genes | enriched in VEGF | induces angiogenesis | better cardiac diastolic function compared with control group | better cardiac systolic function compared with control group | significantly smaller | significantly smaller | significantly greater | the same; also recorded: equivalent to non-infarcted sham animals | also improved | smaller | smaller
